Our source for the EC50 values is patent publication US11116760B2 (Gilead Sciences, Inc., priority 2018, dated 2021).

Structures are written as SMILES.

Sequence of α4β7 integrin (P13612 34-1032): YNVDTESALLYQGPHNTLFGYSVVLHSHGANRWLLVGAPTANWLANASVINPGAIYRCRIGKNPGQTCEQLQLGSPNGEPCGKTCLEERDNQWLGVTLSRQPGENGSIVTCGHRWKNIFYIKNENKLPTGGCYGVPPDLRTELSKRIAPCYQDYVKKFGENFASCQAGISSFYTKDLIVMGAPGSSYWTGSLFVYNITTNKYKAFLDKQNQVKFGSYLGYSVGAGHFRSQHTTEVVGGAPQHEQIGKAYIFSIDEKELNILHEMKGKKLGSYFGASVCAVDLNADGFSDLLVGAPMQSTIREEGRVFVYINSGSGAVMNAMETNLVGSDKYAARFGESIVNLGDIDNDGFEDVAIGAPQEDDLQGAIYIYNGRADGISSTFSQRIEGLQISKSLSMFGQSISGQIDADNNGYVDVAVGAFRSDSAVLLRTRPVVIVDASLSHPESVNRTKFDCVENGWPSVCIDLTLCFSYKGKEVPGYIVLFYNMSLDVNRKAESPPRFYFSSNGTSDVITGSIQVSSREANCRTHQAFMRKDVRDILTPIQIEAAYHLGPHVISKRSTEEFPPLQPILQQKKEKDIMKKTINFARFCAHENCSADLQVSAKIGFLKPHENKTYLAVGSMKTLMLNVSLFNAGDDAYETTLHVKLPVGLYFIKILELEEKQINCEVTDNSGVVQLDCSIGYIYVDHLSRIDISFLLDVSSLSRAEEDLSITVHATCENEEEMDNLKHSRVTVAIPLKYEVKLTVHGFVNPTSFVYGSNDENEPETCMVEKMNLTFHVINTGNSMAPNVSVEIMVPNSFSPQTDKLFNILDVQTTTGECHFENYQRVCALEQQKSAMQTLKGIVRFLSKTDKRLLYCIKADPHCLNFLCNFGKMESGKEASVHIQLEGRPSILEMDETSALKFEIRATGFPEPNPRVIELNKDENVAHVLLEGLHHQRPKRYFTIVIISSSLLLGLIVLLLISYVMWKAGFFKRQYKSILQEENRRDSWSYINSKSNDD
Sequence of α4β7 integrin (P26010 20-798): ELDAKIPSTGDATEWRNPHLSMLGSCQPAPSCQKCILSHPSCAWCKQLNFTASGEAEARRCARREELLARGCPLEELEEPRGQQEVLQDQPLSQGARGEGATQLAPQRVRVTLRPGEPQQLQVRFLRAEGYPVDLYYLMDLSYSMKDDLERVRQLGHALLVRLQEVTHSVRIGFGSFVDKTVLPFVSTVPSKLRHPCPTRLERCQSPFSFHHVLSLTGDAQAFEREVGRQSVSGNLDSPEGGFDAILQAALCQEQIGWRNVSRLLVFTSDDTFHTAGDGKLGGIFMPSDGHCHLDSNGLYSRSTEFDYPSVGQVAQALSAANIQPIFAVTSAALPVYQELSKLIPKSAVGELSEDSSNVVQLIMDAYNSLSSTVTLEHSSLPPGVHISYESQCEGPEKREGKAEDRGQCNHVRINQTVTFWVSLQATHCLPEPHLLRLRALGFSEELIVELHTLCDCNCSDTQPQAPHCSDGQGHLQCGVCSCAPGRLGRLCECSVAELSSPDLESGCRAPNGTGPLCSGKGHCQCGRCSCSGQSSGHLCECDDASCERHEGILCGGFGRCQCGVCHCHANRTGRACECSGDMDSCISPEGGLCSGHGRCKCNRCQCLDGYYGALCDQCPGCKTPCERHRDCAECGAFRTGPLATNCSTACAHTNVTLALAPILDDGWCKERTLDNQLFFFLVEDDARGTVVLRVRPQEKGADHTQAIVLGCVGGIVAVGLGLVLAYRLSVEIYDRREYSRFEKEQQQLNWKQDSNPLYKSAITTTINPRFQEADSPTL

The target of the first test is α4β7 integrin (Homo sapiens (Human), UniProt P13612+P26010). Nature of the test: α4β7 Integrin Cell Capture Assay. The format is cell-based. Particulars: RPMI8866 cells captured on MadCAM-1 extracellular domain-coated plate. The procedure:
α4β7 Integrin Cell Capture Assay
The potency of inhibitors in preventing α4β7 integrin interaction with MadCAM-1 was measured by monitoring the capture of α4β7 integrin expressing cells on a recombinant MadCAM-1 extracellular domain-coated plate. […] The plates were then washed with PBS and blocked with 3% BSA for 2 hours before being washed again.
RPM18866 cells were spun down and re-suspended in assay medium (DMEM+0.5% FBS+0.5 mM MnCl2) at a density of 0.5×10^6 cells/mL. […] The plates were incubated at 37° C. for 1 hour. 50 μL of cells were transferred to the blocked, MadCAM-1-coated plates and incubated for 30 minutes at 37° C. […] The plates were incubated for 90 minutes at room temperature. The plates were then washed 3 times with 70 μL of PBS per well and imaged on a Cellomics ArrayScan instrument. The cells that were bound to the plate were counted and plotted against the compound concentration to determine the EC50 of the test compounds.
As usually defined, the EC50 is the concentration at which the effect is half-maximal. `Cc1cc(N2CCOC[C@@H]2C(F)(F)F)cc(F)c1C(=O)N[C@@H](Cc1ccc(-n2c(=O)c3ncccc3n(C)c2=O)c2ncccc12)C(=O)O` [Example 399, (S)-2-(2-fluoro-6-methyl-4-((R)-3-(trifluoromethyl)morpholino)benzamido)-3-(8-(1-methyl-2,4-dioxo-1,4-dihydropyrido[3,2-d]pyrimidin-3(2H)-yl)quinolin-5-yl)propanoic acid] returned a concentration giving a half-maximal response (EC50) of 0.1 nM. Still for that read-out and setting: in the case of `CC[C@@H](Nc1cc(C)c(C(=O)N[C@@H](Cc2ccc(-c3c(C)nc(C)n(C)c3=O)c3ncccc23)C(=O)O)c(F)c1)C(F)(F)F` [Example 442] it was 0.227 nM; in that of `Cc1cc(N2CCOC[C@@H]2C(F)(F)F)cc(F)c1C(=O)N[C@@H](Cc1ccc(-n2c(=O)c3c(n(C)c2=O)CCOC3)c2ncccc12)C(=O)O` [Example 412], 0.091 nM.

The test is the same for the next values; noted with them: Table 1; capture of α4β7 expressing RPM18866 cells on MadCAM-1 extracellular domain-coated plate.
In the case of `N#Cc1ccc(-c2ccc(C[C@H](NC(=O)c3c(F)cc(NS(=O)(=O)c4ccc(-c5ccnc(F)c5)cc4)cc3F)C(=O)O)c3cccnc23)c(Cl)c1` [Example 47, (S)-3-(8-(2-chloro-4-cyanophenyl)quinolin-5-yl)-2-(2,6-difluoro-4-((4-(2-fluoropyridin-4-yl)phenyl)sulfonamido)benzamido)propanoic acid], the EC50 was found to be 2.4 nM. Compound `COc1cc(F)cc(C(F)(F)F)c1-c1ccc(C[C@H](NC(=O)c2c(F)cccc2F)C(=O)O)c2cccnc12` [Example 6, (2S)-2-(2,6-difluorobenzamido)-3-(8-(4-fluoro-2-methoxy-6-(trifluoromethyl)phenyl)quinolin-5-yl)propanoic acid] showed an EC50 of 4.5 nM. Still for that read-out and setting: in the case of `C[C@@H](NC(=O)c1cc(F)c(C(=O)N[C@@H](Cc2ccc(-c3ccc(C#N)cc3Cl)c3ncccc23)C(=O)O)c(F)c1)c1ccccc1` [Example 27, (S)-3-(8-(2-chloro-4-cyanophenyl)quinolin-5-yl)-2-(2,6-difluoro-4-(((R)-1-phenylethyl)carbamoyl)benzamido)propanoic acid] it was 12.8 nM; in that of `Cc1c(C(F)(F)F)cn(C)c(=O)c1-c1ccc(C[C@H](NC(=O)c2c(F)cc(N3CCOC[C@@H]3C(F)(F)F)cc2F)C(=O)O)c2cccnc12` [Example 106, (S)-2-(2,6-difluoro-4-((R)-3-(trifluoromethyl)morpholino)benzamido)-3-(8-(1,4-dimethyl-2-oxo-5-(trifluoromethyl)-1,2-dihydropyridin-3-yl)quinolin-5-yl)propanoic acid], 0.3 nM; in that of `Cn1cc(C(F)(F)F)cc(-c2ccc(C[C@H](NC(=O)c3c(F)cc(N4CCOC[C@@H]4C(F)(F)F)cc3F)C(=O)O)c3cccnc23)c1=O` [Example 98, (S)-2-(2,6-difluoro-4-((R)-3-(trifluoromethyl)morpholino)benzamido)-3-(8-(1-methyl-2-oxo-5-(trifluoromethyl)-1,2-dihydropyridin-3-yl)quinolin-5-yl)propanoic acid], 1.4 nM.

In turn, `Cc1cc(C(F)(F)F)c(-c2ccc(C[C@H](NC(=O)c3c(F)cc(N[C@H](C)C(F)(F)F)cc3F)C(=O)O)c3cccnc23)c(=O)n1C` [Example 128, (S)-2-(2,6-difluoro-4-(((R)-1,1,1-trifluoropropan-2-yl)amino)benzamido)-3-(8-(1,6-dimethyl-2-oxo-4-(trifluoromethyl)-1,2-dihydropyridin-3-yl)quinolin-5-yl)propanoic acid] displayed an EC50 of 0.3 nM. The compound `N#Cc1ccc(-c2c(F)cc(C[C@H](NC(=O)c3c(F)cccc3F)C(=O)O)c3cccnc23)c(Cl)c1` [Example 34, (2S)-3-(8-(2-chloro-4-cyanophenyl)-7-fluoroquinolin-5-yl)-2-(2,6-difluorobenzamido)propanoic acid] had a concentration giving a half-maximal response (EC50) of 39.5 nM. The same measure, in the same setting: in the case of `N#Cc1ccc(-c2ccc(C[C@H](NC(=O)c3c(F)cccc3F)C(=O)O)c3cccnc23)c(Cl)c1` [Example 3, (S)-3-(8-(2-chloro-4-cyanophenyl)quinolin-5-yl)-2-(2,6-difluorobenzamido)propanoic acid] it was 63.8 nM; in that of `COc1cc(C)n(C)c(=O)c1-c1ccc(C[C@H](NC(=O)c2c(F)cc(N3CCOC[C@@H]3C(F)(F)F)cc2F)C(=O)O)c2cccnc12` [Example 102, (S)-2-(2,6-difluoro-4-((R)-3-(trifluoromethyl)morpholino)benzamido)-3-(8-(4-methoxy-1,6-dimethyl-2-oxo-1,2-dihydropyridin-3-yl)quinolin-5-yl)propanoic acid], 0.3 nM; in that of `CC[C@@H](Nc1cc(F)c(C(=O)N[C@@H](Cc2ccc(-c3nc(C)c(C)n(C)c3=O)c3ncccc23)C(=O)O)c(F)c1)C(F)(F)F` [Example 117, (S)-2-(2,6-difluoro-4-(((R)-1,1,1-trifluorobutan-2-yl)amino)benzamido)-3-(8-(4,5,6-trimethyl-3-oxo-3,4-dihydropyrazin-2-yl)quinolin-5-yl)propanoic acid], 0.7 nM.

Staying with this test, now noted: Table 2; capture of α4β7 expressing RPM18866 cells on MadCAM-1 extracellular domain-coated plate.
`Cc1cc(C(F)(F)F)c(-c2ccc(C[C@H](NC(=O)c3c(F)cc(N4CCOC[C@@H]4C)cc3F)C(=O)O)c3cccnc23)c(=O)n1C` [Example 180] registered an EC50 of 0.9 nM. On the same count and under the same terms, the value for `N#Cc1ccc(-c2ccc(C[C@H](NC(=O)c3c(F)cc(NC(c4ccccc4)C(F)F)cc3F)C(=O)O)c3cccnc23)c(Cl)c1` (some centres unmarked) [Example 326] was 19.1 nM; that for `O=C(N[C@@H](Cc1ccc(-c2ncc3c(n2)CCC3)c2ncccc12)C(=O)O)c1c(F)cc(N2CCOC[C@@H]2C(F)(F)F)cc1F` [Example 299] was 8.2 nM; that for `CC[C@@H](Nc1cc(F)c(C(=O)N[C@@H](Cc2ccc(-c3nccc(C)c3C)c3ncccc23)C(=O)O)c(F)c1)C(F)(F)F` [Example 307] was 11.4 nM. On to `Cn1c(C2CC2)cc(C(F)(F)F)c(-c2ccc(C[C@H](NC(=O)c3c(F)cc(N4CCOC[C@@H]4C(F)(F)F)cc3F)C(=O)O)c3cccnc23)c1=O` [Example 158], for which a half-maximal response (EC50) required 0.3 nM. Same read-out and setting: the value for `Cc1c(N(C)C)cn(C)c(=O)c1-c1ccc(C[C@H](NC(=O)c2c(F)cc(N3CCOC[C@@H]3C(F)(F)F)cc2F)C(=O)O)c2cccnc12` [Example 242] was 2.8 nM; that for `O=C(N[C@@H](Cc1ccc(-c2cc3ccccc3oc2=O)c2ncccc12)C(=O)O)c1c(Cl)cccc1Cl` [Example 196] was 63.1 nM; that for `N#Cc1ccc(-c2ccc(C[C@H](NC(=O)c3c(Cl)cc4nc(C5CC5)[nH]c4c3Cl)C(=O)O)c3cccnc23)c(Cl)c1` [Example 179] was 37.7 nM. On the same count and under the same terms, in the case of `Cc1cc(C(F)(F)F)c(-c2ccc(C[C@H](NC(=O)c3c(F)cc(N4C[C@H](C)OC[C@@H]4C(F)(F)F)cc3F)C(=O)O)c3cccnc23)c(=O)n1C` [Example 198] it was 1.4 nM. The same measure, in the same setting: the value for `Cc1nc(C)c(-c2ccc(C[C@H](NC(=O)c3c(F)cc(N4CCOC[C@@H]4C(F)(F)F)cc3F)C(=O)O)c3cccnc23)nc1C` [Example 274] was 4.8 nM; that for `Cc1cc(C(F)(F)F)c(-c2ccc(C[C@H](NC(=O)c3c(F)cc(N4CCO[C@@H](C)C4)cc3F)C(=O)O)c3cccnc23)c(=O)n1C` [Example 181] was 0.7 nM.

For the compound `Cc1nc(-c2ccc(C[C@H](NC(=O)c3c(F)cc(N4CCOC[C@@H]4C(F)(F)F)cc3F)C(=O)O)c3cccnc23)ncc1F` [Example 301], the EC50 amounted to 9.4 nM.

`C[C@@H](Nc1cc(F)c(C(=O)N[C@@H](Cc2ccc(-c3nc(N)ccc3C(F)(F)F)c3ncccc23)C(=O)O)c(F)c1)C(F)(F)F` [Example 238] showed a 50% effective concentration (EC50) of 2.8 nM. The same measure, in the same setting: the value for `Cc1cc(C(F)(F)F)c(-c2ccc(C[C@H](NC(=O)c3c(F)cc(N4CC5CCC4CO5)cc3F)C(=O)O)c3cccnc23)c(=O)n1C` (some centres unmarked) [Example 257] was 3.5 nM; that for `CC[C@@H](Nc1cc(F)c(C(=O)N[C@@H](Cc2ccc(-c3ncccc3C(C)C)c3ncccc23)C(=O)O)c(F)c1)C(F)(F)F` [Example 305] was 10.2 nM; that for `N#Cc1ccc(-c2ccc(C[C@H](NC(=O)c3c(Cl)cc4[nH]ccc4c3Cl)C(=O)O)c3cccnc23)c(Cl)c1` [Example 246] was 34.3 nM. Still for that read-out and setting: in the case of `Cc1[nH]c2cc(Cl)c(C(=O)N[C@@H](Cc3ccc(-c4ccc(C#N)cc4Cl)c4ncccc34)C(=O)O)c(Cl)c2c1C` [Example 174] it was 97.8 nM; in that of `CC[C@@H](Nc1cc(F)c(C(=O)N[C@@H](Cc2ccc(-c3c(C)c(N(C)C)cn(C)c3=O)c3ncccc23)C(=O)O)c(F)c1)C(F)(F)F` [Example 287], 5.7 nM; in that of `Cc1c(Cl)cc(-c2ccc(C[C@H](NC(=O)c3c(F)cc(N4CCOC[C@@H]4C(F)(F)F)cc3F)C(=O)O)c3cccnc23)c(=O)n1C` [Example 161], 0.3 nM. Turning to `Cc1c(-c2ccc(C[C@H](NC(=O)c3c(F)cc(N[C@H](C)C(F)(F)F)cc3F)C(=O)O)c3cccnc23)c(=O)n(C)c(=O)n1C` [Example 340], the EC50 was found to be 0.6 nM. Still for that read-out and setting: the value for `O=C(N[C@H](C(=O)O)[C@@H](O)c1ccc(-c2c(Cl)cc(F)cc2Cl)c2ncccc12)c1c(F)cccc1F` [Example 279] was 82.4 nM. The same measure, in the same setting: in the case of `Cc1cc(C(F)(F)F)c(-c2ccc(C[C@H](NC(=O)c3c(F)cc(N4CCCC[C@@H]4C(F)(F)F)cc3F)C(=O)O)c3cccnc23)c(=O)n1C` (atropisomer, axis not shown) [Example 344] it was 0.8 nM.
